# Laboratory results reported in PubChem BioAssay (NCI).
#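 How tested: cells in 96-well plates exposed to compound for 48 hours at five concentrations. TGI: concentration producing complete growth inhibition.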
# Assays:
# Test in all cases: growth of human tumour cells (NCI), 48 h
# [1] = test system: 786-0 renal
# [2] = test system: A498 renal
# [3] = test system: A549 NSCLC
# [4] = test system: ACHN renal
# [5] = test system: BT-549 breast
# [6] = test system: CAKI-1 renal
# [7] = test system: CCRF-CEM leukemia
# [8] = test system: COLO 205 colon
# [9] = test system: DU-145 prostate
# [10] = test system: EKVX NSCLC
# [11] = test system: HCC-2998 colon
# [12] = test system: HCT-116 colon
# [13] = test system: HCT-15 colon
# [14] = test system: HOP-62 NSCLC
# [15] = test system: HOP-92 NSCLC
# [16] = test system: HT29 colon
# [17] = test system: IGROV1 ovarian
# [18] = test system: K-562 leukemia
# [19] = test system: KM12 colon
# [20] = test system: LOX IMVI melanoma
# [21] = test system: M14 melanoma
# [22] = test system: MCF7 breast
# [23] = test system: MDA-MB-231 breast
# [24] = test system: MDA-MB-435
# [25] = test system: MDA-N
# [26] = test system: MOLT-4 leukemia
# [27] = test system: NCI-H226 lung
# [28] = test system: NCI-H23 lung
# [29] = test system: NCI-H460 lung
# [30] = test system: NCI/ADR-RES ovarian
# [31] = test system: OVCAR-3 ovarian
# [32] = test system: OVCAR-4 ovarian
# [33] = test system: OVCAR-5 ovarian
# [34] = test system: OVCAR-8 ovarian
# [35] = test system: PC-3 prostate
# [36] = test system: RPMI-8226 leukemia
# [37] = test system: RXF 393 renal
# [38] = test system: SF-268 CNS
# [39] = test system: SF-295 CNS
# [40] = test system: SF-539 CNS
# [41] = test system: SK-MEL-2 melanoma
# [42] = test system: SK-MEL-28 melanoma
# [43] = test system: SK-MEL-5 melanoma
# [44] = test system: SK-OV-3 ovarian
# [45] = test system: SN12C renal
# [46] = test system: SNB-19 CNS
# [47] = test system: SNB-75 CNS
# [48] = test system: SR leukemia
# [49] = test system: SW-620 colon
# [50] = test system: T-47D breast
# [51] = test system: TK-10 renal
# [52] = test system: U251 CNS
# [53] = test system: UACC-257 melanoma
# [54] = test system: UACC-62 melanoma
# [55] = test system: HS 578T breast
# [56] = test system: MALME-3M melanoma
# [57] = test system: NCI-H522 lung
# [58] = test system: UO-31 renal
smiles,measurement,setting,value
CCOC(=O)c1cn(-c2ccccc2)c(=S)n2c1nc1ccccc12,TGI,[1],> 100 µM
same,TGI,[2],> 100 µM
same,TGI,[3],> 100 µM
same,TGI,[4],> 100 µM
same,TGI,[5],> 100 µM
same,TGI,[6],> 100 µM
same,TGI,[7],65.3 µM
same,TGI,[8],> 64.8 µM
same,TGI,[9],> 100 µM
same,TGI,[10],> 100 µM
same,TGI,[11],96.9 µM
same,TGI,[12],> 100 µM
same,TGI,[13],> 100 µM
same,TGI,[14],> 100 µM
same,TGI,[15],47.7 µM
same,TGI,[16],> 90.8 µM
same,TGI,[17],> 100 µM
same,TGI,[18],> 100 µM
same,TGI,[19],> 100 µM
same,TGI,[20],> 100 µM
same,TGI,[21],> 100 µM
same,TGI,[22],> 100 µM
same,TGI,[23],> 100 µM
same,TGI,[24],> 94.8 µM
same,TGI,[25],> 100 µM
same,TGI,[26],17.5 µM
same,TGI,[27],> 88.1 µM
same,TGI,[28],> 100 µM
same,TGI,[29],> 100 µM
same,TGI,[30],> 100 µM
same,TGI,[31],> 100 µM
same,TGI,[32],> 100 µM
same,TGI,[33],> 100 µM
same,TGI,[34],> 100 µM
same,TGI,[35],> 90 µM
same,TGI,[36],> 100 µM
same,TGI,[37],> 100 µM
same,TGI,[38],94.9 µM
same,TGI,[39],> 100 µM
same,TGI,[40],> 100 µM
same,TGI,[41],> 100 µM
same,TGI,[42],> 73.4 µM
same,TGI,[43],> 89.6 µM
same,TGI,[44],> 100 µM
same,TGI,[45],> 100 µM
same,TGI,[46],> 100 µM
same,TGI,[47],> 100 µM
same,TGI,[48],84.6 µM
same,TGI,[49],> 100 µM
same,TGI,[50],> 100 µM
same,TGI,[51],> 100 µM
same,TGI,[52],> 100 µM
same,TGI,[53],> 100 µM
same,TGI,[54],> 100 µM
COc1ccc(-c2nc(N)c(C#N)c3c2CCS(=O)(=O)c2ccc(C)cc2-3)cc1OC,TGI,[1],> 100 µM
same,TGI,[2],62.5 µM
same,TGI,[3],> 100 µM
same,TGI,[4],> 100 µM
same,TGI,[5],> 100 µM
same,TGI,[6],> 100 µM
same,TGI,[8],79.5 µM
same,TGI,[9],> 100 µM
same,TGI,[11],> 100 µM
same,TGI,[12],> 100 µM
same,TGI,[13],> 100 µM
same,TGI,[14],> 100 µM
same,TGI,[15],> 100 µM
same,TGI,[55],77.6 µM
same,TGI,[16],92.2 µM
same,TGI,[17],> 100 µM
same,TGI,[18],29.4 µM
same,TGI,[19],52.3 µM
same,TGI,[20],> 100 µM
same,TGI,[21],> 100 µM
same,TGI,[56],> 100 µM
same,TGI,[23],> 100 µM
same,TGI,[24],91.6 µM
same,TGI,[25],51 µM
same,TGI,[27],> 100 µM
same,TGI,[28],> 100 µM
same,TGI,[29],> 100 µM
same,TGI,[57],25.1 µM
same,TGI,[30],> 100 µM
same,TGI,[31],> 100 µM
same,TGI,[32],> 100 µM
same,TGI,[33],> 100 µM
same,TGI,[34],> 100 µM
same,TGI,[35],> 100 µM
same,TGI,[38],> 100 µM
same,TGI,[41],85.2 µM
same,TGI,[42],> 100 µM
same,TGI,[43],> 100 µM
same,TGI,[45],> 100 µM
same,TGI,[46],> 100 µM
same,TGI,[47],69.7 µM
same,TGI,[49],> 100 µM
same,TGI,[50],> 100 µM
same,TGI,[51],> 100 µM
same,TGI,[52],> 100 µM
same,TGI,[53],> 100 µM
same,TGI,[54],51.7 µM
same,TGI,[58],> 100 µM
